Data reported in ChEMBL document CHEMBL5113403, “Design, synthesis, and biological evaluation of novel pyrazolo [3,4-d]pyrimidine derivatives as potent PLK4 inhibitors for the treatment of TRIM37-amplified breast cancer” (Eur J Med Chem, 2022).

What was measured:
[1] = tested on: MCF7; assay: Induction of apoptosis in human MCF7 cells assessed as early apoptotic cells at 2.5 uM incubated for 48 hrs by Annexin-V-FITC/PI staining based flow cytometric analysis (reference value: 2.83 %); format: functional
[2] = Plasma stability in human assessed as compound remaining at 100 uM measured after 120 mins by LC-MS/MS analysis relative to control; format: ADME, cell-free; details: read-out: Stability
[3] = MRT in Sprague-Dawley rat at 10 mg/kg, po by LC-MS/MS analysis; format: ADME, organism-based; details: in vivo
[4] = tested on: BT-474; assay: Antiproliferative activity against human BT-474 cells assessed as cell growth inhibition incubated for 5 days by MTT assay; format: functional, cell-based; details: BT-474, 120 h
[5] = tested on: MCF7; assay: Induction of apoptosis in human MCF7 cells assessed as total apoptotic cells at 0.25 uM incubated for 48 hrs by Annexin-V-FITC/PI staining based flow cytometric analysis relative to control; format: functional
[6] = tested on: MCF7; assay: Induction of cell cycle arrest in human MCF7 cells assessed as less G1 phase cells at 0.50 uM measured after 48 hrs by flow cytometry analysis (reference value: 0.44 %); format: functional; details: dose 0.5 µM
[7] = tested on: MCF7; assay: Induction of apoptosis in human MCF7 cells assessed as necrotic cells at 1 uM incubated for 48 hrs by Annexin-V-FITC/PI staining based flow cytometric analysis (reference value: 0.18 %); format: functional
[8] = tested on: MCF7; assay: Induction of apoptosis in human MCF7 cells assessed as necrotic cells at 2.5 uM incubated for 48 hrs by Annexin-V-FITC/PI staining based flow cytometric analysis (reference value: 0.18 %); format: functional
[9] = molecular target: T1, CYP1A2 (Homo sapiens, UniProt P05177); assay: Inhibition of CYP1A2 in human liver microsomes at 10 uM preincubated for 10 mins followed by addition of NADPH-regenerating system and measured after 15 mins by LC-MS/MS analysis relative to control; format: ADME, Microsome; details: time 25 min
T1 sequence (P05177 whole entry): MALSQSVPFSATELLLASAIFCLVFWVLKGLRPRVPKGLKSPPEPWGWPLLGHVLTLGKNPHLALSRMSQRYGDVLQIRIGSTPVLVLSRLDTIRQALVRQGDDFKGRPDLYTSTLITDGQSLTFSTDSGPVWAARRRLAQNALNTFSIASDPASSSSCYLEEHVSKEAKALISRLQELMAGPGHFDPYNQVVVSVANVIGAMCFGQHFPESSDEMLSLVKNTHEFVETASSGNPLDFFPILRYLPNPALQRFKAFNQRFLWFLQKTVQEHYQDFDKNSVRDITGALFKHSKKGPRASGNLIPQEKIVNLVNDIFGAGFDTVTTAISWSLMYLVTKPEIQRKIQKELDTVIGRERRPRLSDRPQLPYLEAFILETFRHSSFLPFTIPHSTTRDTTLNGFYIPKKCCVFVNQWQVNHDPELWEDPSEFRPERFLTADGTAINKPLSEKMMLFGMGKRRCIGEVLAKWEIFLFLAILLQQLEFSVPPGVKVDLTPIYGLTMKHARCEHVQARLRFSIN

[10] = tested on: MCF7; assay: Induction of cell cycle arrest in human MCF7 cells assessed as greater G1 phase cells at 0.25 uM measured after 48 hrs by flow cytometry analysis (reference value: 0.78 %); format: functional
[11] = molecular target: CYP2C19 (Homo sapiens, UniProt P33261); assay: Inhibition of CYP2C19 in human liver microsomes at 10 uM preincubated for 10 mins followed by addition of NADPH-regenerating system and measured after 15 mins by LC-MS/MS analysis relative to control; format: ADME, Microsome; details: time 25 min
CYP2C19, sequence (P33261 whole entry): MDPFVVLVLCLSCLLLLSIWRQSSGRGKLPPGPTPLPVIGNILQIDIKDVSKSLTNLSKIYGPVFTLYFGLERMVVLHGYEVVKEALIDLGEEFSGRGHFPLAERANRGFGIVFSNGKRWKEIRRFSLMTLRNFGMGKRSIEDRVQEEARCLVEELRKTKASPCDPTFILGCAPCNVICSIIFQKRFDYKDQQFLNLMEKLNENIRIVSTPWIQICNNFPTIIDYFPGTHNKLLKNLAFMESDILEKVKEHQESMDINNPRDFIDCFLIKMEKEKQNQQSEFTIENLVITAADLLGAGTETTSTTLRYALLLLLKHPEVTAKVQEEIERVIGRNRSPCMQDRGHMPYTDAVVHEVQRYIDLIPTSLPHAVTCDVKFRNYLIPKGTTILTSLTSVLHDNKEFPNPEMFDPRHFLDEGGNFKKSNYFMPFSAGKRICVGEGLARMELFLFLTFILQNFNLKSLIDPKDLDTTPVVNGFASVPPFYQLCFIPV

[12] = AUCinfinity in Sprague-Dawley rat at 3 mg/kg, iv by LC-MS/MS analysis; format: ADME, organism-based; parameters: time infinity, dose 3 mg/kg, route iv; details: in vivo
[13] = tested on: MCF7; assay: Induction of apoptosis in human MCF7 cells assessed as total apoptotic cells at 0.10 uM incubated for 48 hrs by Annexin-V-FITC/PI staining based flow cytometric analysis relative to control; format: functional; details: dose 0.1 µM
[14] = Volume of distribution at steady state in Sprague-Dawley rat at 3 mg/kg, iv by LC-MS/MS analysis; format: ADME, organism-based; details: in vivo, read-out: Vdss
[15] = tested on: MCF7; assay: Induction of apoptosis in human MCF7 cells assessed as late apoptotic cells at 0.25 uM incubated for 48 hrs by Annexin-V-FITC/PI staining based flow cytometric analysis (reference value: 0.019 %); format: functional
[16] = tested on: MCF7; assay: Induction of apoptosis in human MCF7 cells assessed as necrotic cells at 0.10 uM incubated for 48 hrs by Annexin-V-FITC/PI staining based flow cytometric analysis (reference value: 0.18 %); format: functional; details: dose 0.1 µM
[17] = AUClast in Sprague-Dawley rat at 3 mg/kg, iv by LC-MS/MS analysis; format: ADME, organism-based; parameters: time 0 - last, dose 3 mg/kg, route iv; details: in vivo
[18] = Plasma stability in human assessed as compound remaining at 100 uM measured after 10 mins by LC-MS/MS analysis relative to control; format: ADME, cell-free; details: read-out: Stability
[19] = tested on: MCF7; assay: Induction of cell cycle arrest in human MCF7 cells assessed as S phase cells at 2.5 uM measured after 48 hrs by flow cytometry analysis (reference value: 9.31 %); format: functional
[20] = tested on: MCF7; assay: Induction of cell cycle arrest in human MCF7 cells assessed as greater G1 phase cells at 2.5 uM measured after 48 hrs by flow cytometry analysis (reference value: 0.78 %); format: functional
[21] = tested on: MCF7; assay: Induction of cell cycle arrest in human MCF7 cells assessed as S phase cells at 1 uM measured after 48 hrs by flow cytometry analysis (reference value: 9.31 %); format: functional
[22] = tested on: MCF7; assay: Induction of cell cycle arrest in human MCF7 cells assessed as S phase cells at 0.25 uM measured after 48 hrs by flow cytometry analysis (reference value: 9.31 %); format: functional
[23] = tested on: MCF7; assay: Induction of apoptosis in human MCF7 cells assessed as viable cells at 1 uM incubated for 48 hrs by Annexin-V-FITC/PI staining based flow cytometric analysis (reference value: 97 %); format: functional
[24] = tested on: MCF7; assay: Induction of apoptosis in human MCF7 cells assessed as necrotic cells at 0.50 uM incubated for 48 hrs by Annexin-V-FITC/PI staining based flow cytometric analysis (reference value: 0.18 %); format: functional; details: dose 0.5 µM
[25] = tested on: MCF7; assay: Induction of apoptosis in human MCF7 cells assessed as viable cells at 2.5 uM incubated for 48 hrs by Annexin-V-FITC/PI staining based flow cytometric analysis (reference value: 97 %); format: functional
[26] = tested on: MCF7; assay: Induction of cell cycle arrest in human MCF7 cells assessed as greater G1 phase cells at 0.50 uM measured after 48 hrs by flow cytometry analysis (reference value: 0.78 %); format: functional; details: dose 0.5 µM
[27] = tested on: MCF7; assay: Induction of cell cycle arrest in human MCF7 cells assessed as decrease in G1 phase cells at 2.5 uM measured after 48 hrs by flow cytometry analysis (reference value: 56.9 %); format: functional; parameters: scale not given: the % may be the effect or the level left
[28] = tested on: MCF7; assay: Induction of cell cycle arrest in human MCF7 cells assessed as less G1 phase cells at 1 uM measured after 48 hrs by flow cytometry analysis (reference value: 0.44 %); format: functional
[29] = Oral bioavailability in Sprague-Dawley rat at 10 mg/kg by LC-MS/MS analysis; format: ADME, organism-based; details: in vivo
[30] = tested on: MCF7; assay: Induction of cell cycle arrest in human MCF7 cells assessed as G2 phase cells at 0.25 uM measured after 48 hrs by flow cytometry analysis (reference value: 31.8 %); format: functional

remaining at 2 h, 100 µM [2]: 107% | MRT [3]: 3.13 h | IC50 [4]: 2350 nM | inhibition at 0.25 h, 10 µM [9]: 21.2% | inhibition at 0.25 h, 10 µM [11]: 32.9% | AUC(0-inf) [12]: 1070 ng·h/mL | Vd [14]: 3.02 L/kg | AUC(0-t) [17]: 1070 ng·h/mL | remaining at 10 min, 100 µM [18]: 108% | bioavailability [29]: 8.03%
SMILES: Cc1cc(Nc2nc(NCc3ccc(F)cc3F)nc3c2cnn3C2CCOCC2)n[nH]1
Activity [1]: 68.5% | Activity [5]: 30.98% | Activity [6]: 0.71% | Activity [7]: 0.69% | Activity [8]: 0.98% | Activity [10]: 0.68% | Activity [13]: 24.04% | Activity [15]: 6.18% | Activity [16]: 1.15% | Activity [19]: 21.6% | Activity [20]: 0.87% | Activity [21]: 19.2% | Activity [22]: 10.67% | Activity [23]: 27.5% | Activity [24]: 0.56% | Activity [25]: 19.7% | Activity [26]: 1.34% | Activity [27]: 9.8% | Activity [28]: 0.37% | Activity [30]: 44.4%
